# Laboratory results taken from patent US4017611A, “Control of insects with 3-hydroxymethacrylic acid methyl ester dimethylthionophosphate” (priority 1970, dated 1977).
# Read-outs that look alike come from different tables or passages of the source.
# What was measured:
# [1] = tested on: Sitophilus granarius; assay: Durability (disinfection) test on wheat, grain weevil; format: in vivo; conditions: 168 h, read-out: % animals dead after one week exposure
# Text: (§1) Wheat was shaken up with 5% dusting agent and then mixed again repeatedly with untreated wheat at half the poison concentration. In this way, a dilution series with concentrations of 50 - 25 - 12 - 6 - 3 - 1.5 ppm was obtained.
# (§2) Since the test is repeated once per month, the desired information is obtained concerning the residual effect. In the test, the important pests in storage protection were chosen, viz, the grain weevil (Sitophilus granarius) - lesser grain borer (Rhizopertha dominica) and the larvae of the Khapra beetle (Trogoderma granarium), which are very resistant to insecticides. 20 test insects were tested per concentration and the results are expressed in the following table.
# [2] = tested on: Trogoderma granarium (L); assay: Durability (disinfection) test on wheat, larvae of the Khapra beetle; format: in vivo; conditions: 168 h, read-out: % animals dead after one week exposure
# Text: as §1, §2
# [3] = tested on: Rhizopertha dominica; assay: Durability (disinfection) test on wheat, lesser grain borer; format: in vivo; conditions: Rhyzopertha dominica, 168 h, read-out: % animals dead after one week exposure
# Text: as §1, §2
# [4] = tested on: Sit. Granarius; assay: Diffusion action in wheat (gas phase between wheat grains); format: in vivo; conditions: Sitophilus granarius, 168 h, 50 ppm treated wheat layer, read-out: Mortality in % after 7 days exposure time
# Text: A plexiglass box was divided by means of wire grids into ten vertical layers each 1 cm thick. Each compartment was filled with wheat grains. The first compartment contained wheat grains which had been treated with 50 ppm active agent (5% dusting agent). The remainder of the compartment contained untreated wheat. All the compartments were then supplied with grain weevils. The mortality was noted after 7 days exposure time and the results are expressed in the following table. Diffusion of active substance in gas phase between the wheat grains
# [5] = Acute oral toxicity (warm blooded toxicity) in rats; conditions: rat, in vivo, po
smiles,measurement,setting,value
"COP(=O)(OC)OC=C(Cl)Cl [DDVP, dimethyldichlorvinylphosphate, reference compound]",mortality at 1.5 ppm,[1]; wheat fresh,100%
same,mortality at 1.5 ppm,[1]; wheat stored 1 month,0%
same,mortality at 1.5 ppm,[1]; wheat stored 2 months,0%
same,mortality at 1.5 ppm,[1]; wheat stored 3 months,0%
same,mortality at 3 ppm,[1]; wheat fresh,100%
same,mortality at 3 ppm,[1]; wheat stored 1 month,5%
same,mortality at 3 ppm,[1]; wheat stored 2 months,0%
same,mortality at 3 ppm,[1]; wheat stored 3 months,0%
same,mortality at 6 ppm,[1]; wheat fresh,100%
same,mortality at 6 ppm,[1]; wheat stored 1 month,25%
same,mortality at 6 ppm,[1]; wheat stored 2 months,0%
same,mortality at 6 ppm,[1]; wheat stored 3 months,0%
same,mortality at 12 ppm,[1]; wheat fresh,100%
same,mortality at 12 ppm,[1]; wheat stored 1 month,100%
same,mortality at 12 ppm,[1]; wheat stored 2 months,55%
same,mortality at 12 ppm,[1]; wheat stored 3 months,0%
same,mortality at 25 ppm,[1]; wheat fresh,100%
same,mortality at 25 ppm,[1]; wheat stored 1 month,100%
same,mortality at 25 ppm,[1]; wheat stored 2 months,100%
same,mortality at 25 ppm,[1]; wheat stored 3 months,50%
same,mortality at 50 ppm,[1]; wheat fresh,100%
same,mortality at 50 ppm,[1]; wheat stored 1 month,100%
same,mortality at 50 ppm,[1]; wheat stored 2 months,100%
same,mortality at 50 ppm,[1]; wheat stored 3 months,99%
same,mortality at 1.5 ppm,[2]; wheat fresh,85%
same,mortality at 1.5 ppm,[2]; wheat stored 1 month,0%
same,mortality at 1.5 ppm,[2]; wheat stored 2 months,0%
same,mortality at 1.5 ppm,[2]; wheat stored 3 months,0%
same,mortality at 3 ppm,[2]; wheat fresh,100%
same,mortality at 3 ppm,[2]; wheat stored 1 month,0%
same,mortality at 3 ppm,[2]; wheat stored 2 months,0%
same,mortality at 3 ppm,[2]; wheat stored 3 months,0%
same,mortality at 6 ppm,[2]; wheat fresh,100%
same,mortality at 6 ppm,[2]; wheat stored 1 month,0%
same,mortality at 6 ppm,[2]; wheat stored 2 months,0%
same,mortality at 6 ppm,[2]; wheat stored 3 months,0%
same,mortality at 12 ppm,[2]; wheat fresh,100%
same,mortality at 12 ppm,[2]; wheat stored 1 month,5%
same,mortality at 12 ppm,[2]; wheat stored 2 months,0%
same,mortality at 12 ppm,[2]; wheat stored 3 months,0%
same,mortality at 25 ppm,[2]; wheat fresh,100%
same,mortality at 25 ppm,[2]; wheat stored 1 month,75%
same,mortality at 25 ppm,[2]; wheat stored 2 months,10%
same,mortality at 25 ppm,[2]; wheat stored 3 months,0%
same,mortality at 50 ppm,[2]; wheat fresh,100%
same,mortality at 50 ppm,[2]; wheat stored 1 month,100%
same,mortality at 50 ppm,[2]; wheat stored 2 months,45%
same,mortality at 50 ppm,[2]; wheat stored 3 months,0%
same,mortality at 1.5 ppm,[3]; wheat fresh,95%
same,mortality at 1.5 ppm,[3]; wheat stored 1 month,0%
same,mortality at 1.5 ppm,[3]; wheat stored 2 months,5%
same,mortality at 1.5 ppm,[3]; wheat stored 3 months,0%
same,mortality at 3 ppm,[3]; wheat fresh,100%
same,mortality at 3 ppm,[3]; wheat stored 1 month,5%
same,mortality at 3 ppm,[3]; wheat stored 2 months,0%
same,mortality at 3 ppm,[3]; wheat stored 3 months,0%
same,mortality at 6 ppm,[3]; wheat fresh,100%
same,mortality at 6 ppm,[3]; wheat stored 1 month,10%
same,mortality at 6 ppm,[3]; wheat stored 2 months,5%
same,mortality at 6 ppm,[3]; wheat stored 3 months,0%
same,mortality at 12 ppm,[3]; wheat fresh,100%
same,mortality at 12 ppm,[3]; wheat stored 1 month,15%
same,mortality at 12 ppm,[3]; wheat stored 2 months,20%
same,mortality at 12 ppm,[3]; wheat stored 3 months,0%
same,mortality at 25 ppm,[3]; wheat fresh,100%
same,mortality at 25 ppm,[3]; wheat stored 1 month,65%
same,mortality at 25 ppm,[3]; wheat stored 2 months,40%
same,mortality at 25 ppm,[3]; wheat stored 3 months,15%
same,mortality at 50 ppm,[3]; wheat fresh,100%
same,mortality at 50 ppm,[3]; wheat stored 1 month,100%
same,mortality at 50 ppm,[3]; wheat stored 2 months,95%
same,mortality at 50 ppm,[3]; wheat stored 3 months,80%
same,mortality at 50 ppm,[4]; distance 1 cm,100%
same,mortality at 50 ppm,[4]; distance 2 cm,100%
same,mortality at 50 ppm,[4]; distance 3 cm,80%
same,mortality at 50 ppm,[4]; distance 4 cm,0%
same,mortality at 50 ppm,[4]; distance 5 cm,0%
same,mortality at 50 ppm,[4]; distance 6 cm,0%
same,LD50,[5],50 mg/kg
